The text below walks through data of paper PMC4372995 (Journal of the American Chemical Society, 2015).

What all share (format): cell-based
Experiment [1] has as its target T1, RhlR (Pseudomonas aeruginosa, UniProt P54292). Briefly: RhlR reporter antagonism in E. coli, […] vs […] BHL. The settings on record: read-out: E. coli / RhlR ^b / antagonism (%) ^g.
Experiment [2] has as its target T1, RhlR. Briefly: RhlR reporter antagonism in E. coli, […] vs […] BHL. The settings on record: read-out: E. coli / RhlR ^b / antagonism (%) ^g. This is another data set of the same source.
Experiment [3] has as its target T1, RhlR. Briefly: RhlR reporter agonism in E. coli at […]. The settings on record: 100 µM.

Molecules are shown by their SMILES. Like-named read-outs stand apart in the source and are kept apart here.

T1 sequence (P54292 whole entry): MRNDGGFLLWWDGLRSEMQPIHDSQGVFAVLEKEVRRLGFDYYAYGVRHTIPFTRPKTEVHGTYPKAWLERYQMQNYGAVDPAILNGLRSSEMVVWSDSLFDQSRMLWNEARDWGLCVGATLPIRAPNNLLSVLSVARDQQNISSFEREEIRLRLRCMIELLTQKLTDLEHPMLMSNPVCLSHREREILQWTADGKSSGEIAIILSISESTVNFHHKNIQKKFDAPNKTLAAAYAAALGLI

On to `O=C(Cc1ccc(I)cc1)N[C@H]1CCOC1=O` [C10], for which the inhibition at 100 µM at RhlR [1] is 84%.
Turning to `O=C(COc1ccc(I)cc1)N[C@H]1CCOC1=O` [E22], the inhibition at 100 µM on RhlR [2] was found to be 74%.
In the case of `O=C(CCCOc1cccc(Br)c1)NC1CCSC1=O` (stereo not drawn) [compound 5, mBTL], the “PAO1 / pyocyanin inhibition (%)” value on RhlR [3] came out at 83 % agonism at 100 µM.
